The record followed here is patent US9504747B2, “Lipids and lipid compositions for the delivery of active agents” (Novartis AG, priority 2013, dated 2016).

Each structure is given as a SMILES string.

The nature of series [1]: Polydispersity index (PDI) of the lipid nanoparticle (dynamic light scattering). It is filed as physicochemical. The procedure, abridged: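 LNPs made by impinging-jet mixing of lipids in ethanol with siRNA in citrate buffer, pH 4-6, siRNA:total lipid ~0.05 wt/wt; sterile filtered, stored at 4° C. Samples diluted in PBS to ~200-400 kcts count rate before dynamic light scattering. PDI reported as intensity-weighted average of fully formed particles.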

A short description of series [2]: pKa measurement of the cationic lipid (TNS fluorescence vs pH). The format is physicochemical. Particulars: probe TNS (fluorescent probe), pKa of the cationic lipid of formula (I). In short, it runs like this:
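Lipid (2 mM ethanol stock) mixed with TNS probe (0.3 mM stock) and diluted into twelve sodium phosphate/citric acid buffers of varying pH. TNS fluorescence read after background subtraction and normalized to the lowest-pH value. pKa taken as the pH at half-maximal normalized fluorescence on the smoothed curve, precise to about 0.1 units.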

The subject of another series is PLK-1 mRNA. The experiment in a line: LS411N Xenograft Assay with PLK1-424 siRNA lipid nanoparticles. It is filed as in vivo, Female Nu/Nu mice. The following applies: percent knock down of PLK-1 mRNA in tumor vs control, 3 mg/kg IV daily for three days, 24 h post last injection. How it is done: Female Nu/Nu mice (6-8 weeks old) were implanted subcutaneously with 5×10^6 LS411N cells. Tumor growth was monitored by caliper measurement before treatment initiation. Mice bearing 150-250 mm^3 subcutaneous tumors were randomized and enrolled in the study. The stock siRNA formulations were diluted to […] with PBS for dosing. Animals enrolled in different groups received a single daily bolus IV injection of 3 mg/kg siRNA for three days. Tumors were harvested 24 hours post last injection to assess target gene regulation by qRT-PCR.
Lipid nanoparticles comprising lipid compounds of formula (I) and the PLK1-424 siRNA duplex sequence listed above were tested in the LS411N Xenograft Assay. The results of this assay are given in Table 5 below as a percent knock down of PLK-1 mRNA as compared to the control when administered as a single daily dose for three days at a dose of 3 mg/kg.

Series [3] is described as follows: Particle size of the lipid nanoparticle (dynamic light scattering, Malvern Zetasizer). It is filed as physicochemical. The following applies: Z-average. The source says:
The lipid nanoparticles have a size of about 1 to about 2,500 nm, about 1 to about 1,500 nm, about 1 to about 1,000 nm, in a sub-embodiment about 50 to about 600 nm, in a sub-embodiment about 50 to about 400 nm, in a sub-embodiment about 50 to about 250 nm, and in a sub-embodiment about 50 to about 150 nm. Unless indicated otherwise, all sizes referred to herein are the average sizes (diameters) of the fully formed nanoparticle, as measured by dynamic light scattering on a Malvern Zetasizer. The nanoparticle sample is diluted in phosphate buffered saline (PBS) so that the count rate is approximately 200-400 kcts. The data is presented as a weighted average of the intensity measure. The lipid nanoparticles (LNPs) were formed by mixing equal volumes of lipids dissolved in alcohol with siRNA dissolved in a citrate buffer by an impinging jet process. […] The siRNA to total lipid ratio is approximately 0.05 (wt/wt). Where a LNP formulation contains four lipid components, the molar ratios correspond to the type of lipid as it appears in the first four columns of the table, in the order that they appear. The ratio of the lipids ranges from 20 to 70 mole percent for the cationic lipid with a target of 40-60, the mole percent of helper lipid ranges from 20 to 70 with a target of 30 to 50, the mole percent of neutral lipid ranges from 0-30, the mole percent of PEG lipid has a range from 1 to 6 with a target of 2 to 5. The concentration of siRNA solution ranges from 0.7 to 1.0 mg/mL with a target of 0.8 to 0.9 mg/mL in a sodium citrate: sodium chloride buffer pH 4-6, with a target of 4.5-5.5. The LNPs are formed by mixing equal volumes of lipid solution in ethanol with siRNA dissolved in a citrate buffer by an impinging jet process through a mixing device with ID ranging from 0.25 to 2.0 mm at a flow rate from 10 to 640 mL/min. The mixed LNP solution is held at room temperature for 0-24 hrs prior to a dilution step. […] The final product is sterile filtered and stored at 4° C. Unless indicated otherwise, all particle size measurements referred to in Tables 4 and 5 are the Z-average particle size of the fully formed nanoparticle, as measured by dynamic light scattering on a Malvern Zetasizer. The nanoparticle sample was diluted in phosphate buffered saline (PBS) so that the count rate is approximately 200-400 kcts.

The subject of series [4] is respiratory syncytial virus F protein. The experiment in a line: Immunization studies: anti-RSV-F titers after liposome-delivered vA317 self-replicating RNA. The format is in vivo. The following applies: BALB/c mice, Course A = days 0 & 21, liposomes with 0.1 μg vA317 replicon (naked control 1 μg). The procedure:
BALB/c were immunized with liposomes comprising DSPC, cholesterol, and various lipids of the invention (or, for comparison, the cationic lipid 1,2-dilinoleyloxy-N,N-dimethyl-3-aminopropane or ‘DLinDMA’). The liposomes encapsulated 0.1 μg of “vA317” self-replicating RNA replicon which encodes respiratory syncytial virus F protein (see WO2012/031043). […] Doses were given either on days 0 & 21 or days 0 & 42. Immune responses were assessed 2 weeks after each dose (2wp1, 2wp2), and in some cases also at 4 weeks after the second dose (4wp2). Four series of experiments were performed, each with its own naked control.

[5] abbreviates: Table 4, FVII siRNA LNP, Chol/DSPC/stealth lipid PEG-DMG, 45/44/9/2.
Where [6] appears, read: Table 4, FVII siRNA LNP, Chol/DSPC/stealth lipid S010, 45/44/9/2.
The mark [7] stands for this setting: Table 5, PLK1-424 siRNA LNP, stealth lipid PEG-DSG, 45/44/9/2.
[8] abbreviates: Table 5, PLK1-424 siRNA LNP, stealth lipid S010, 45/44/9/2.
Where [9] appears, read: Table 4, FVII siRNA LNP, Chol/DSPC/stealth lipid PEG-DMG, molar ratio 45/44/9/2.
Where [10] appears, read: Table 4, FVII siRNA LNP, Chol/DSPC/stealth lipid S010, molar ratio 45/44/9/2.
The mark [11] stands for this setting: Table 5, PLK1-424 siRNA LNP, Chol/DSPC/stealth lipid PEG-DSG, 45/44/9/2.
Where [12] appears, read: Table 5, PLK1-424 siRNA LNP, Chol/DSPC/stealth lipid S010, 45/44/9/2.

For the compound `CCCCC/C=C\C/C=C\CCCCCCCC(=O)OCCCCOc1cc(CN(C)C)cc(OCCCCOC(=O)CCCCCCC/C=C\C/C=C\CCCCC)c1` [Example 38], the PDI is listed as 0.02 in series [1] (setting [5]), 0.04 in series [1] (setting [6]), 0.036 in series [1] (setting [7]) and 0.036 in series [1] (setting [8]). Further, the pKa in series [2] (Table 4) and in series [2] (Table 5) was 5.93 each time. Besides, the “LS411 KD 3 × 3 mg/Kg” value with PLK-1 mRNA (stealth lipid PEG-DSG) worked out at 58%; in the series on PLK-1 mRNA (stealth lipid S010), 60%. Also, the “Size (nm)” value in series [3] (setting [9]) turned out to be 108.0 nm; in series [3] (setting [10]), 120 nm; in series [3] (setting [11]), 116.8 nm; in series [3] (setting [12]) it was 116.8 nm.
As to `CCCCC/C=C\C/C=C\CCCCCCCC(=O)OCCCOc1cc(CN(C)C)cc(OCCCOC(=O)CCCCCCC/C=C\C/C=C\CCCCC)c1` [Example 39], the PDI in series [1] (setting [6]) is recorded as 0.044; in series [1] (setting [8]) it was 0.039. Besides, the pKa in series [2] (Table 4) and in series [2] (Table 5) was 5.91 throughout. Further, the “LS411 KD 3 × 3 mg/Kg” value in the series on PLK-1 mRNA (stealth lipid S010) worked out at 55%. Besides, the results for the “Size (nm)” value in series [3] (setting [10]) and in series [3] (setting [12]) were 122.9 nm and 114.3 nm, respectively.
Consider `CCCCCCCC(=O)OCCCCCCCCOc1cc(CN(C)C)cc(OCCCCCCCCOC(=O)CCCCCCC)c1` [Example 42], for which the PDI in series [1] (setting [6]) was determined as 0.084; in series [1] (setting [8]), 0.06. Besides, the pKa in series [2] (Table 4) and in series [2] (Table 5) was 5.93 throughout. In addition, the “LS411 KD 3 × 3 mg/Kg” value in the series on PLK-1 mRNA (stealth lipid S010) stood at 50%. Also, the “Size (nm)” value in series [3] (setting [10]) turned out to be 120 nm; in series [3] (setting [12]), 181.1 nm.
For `CCCCCCCC(=O)OCCCCCCCCCCOc1cc(CN(C)C)cc(OCCCCCCCCCCOC(=O)CCCCCCC)c1` [Example 43], the PDI is given as 0.08 in series [1] (setting [5]), 0.066 in series [1] (setting [6]) and 0.046 in series [1] (setting [8]). For the same compound, the pKa in series [2] (Table 4) and in series [2] (Table 5) was 5.85 throughout. The “LS411 KD 3 × 3 mg/Kg” value in the series with PLK-1 mRNA (stealth lipid S010) came out at 40%. Also, the “Size (nm)” value is given as 157.8 nm in series [3] (setting [9]), 121.9 nm in series [3] (setting [10]) and 150.7 nm in series [3] (setting [12]).
As for `CCCCCCCCCC(=O)OCCCCCCCCOc1cc(CN(C)C)cc(OCCCCCCCCOC(=O)CCCCCCCCC)c1` [Example 52], the PDI was determined as 0.1 in series [1] (setting [5]), 0.052 in series [1] (setting [6]), 0.06 in series [1] (setting [7]) and 0.06 in series [1] (setting [8]). The pKa in series [2] (Table 4) and in series [2] (Table 5) was 5.96 throughout. Further, the results for the “LS411 KD 3 × 3 mg/Kg” value in the series with PLK-1 mRNA (stealth lipid PEG-DSG) and in the series on PLK-1 mRNA (stealth lipid S010) were 69% and 50%, respectively. Moreover, the “Size (nm)” value in series [3] (setting [9]) is given as 109.4 nm; in series [3] (setting [10]), 145.4 nm; in series [3] (setting [11]) it was 132.2 nm; in series [3] (setting [12]), 132.2 nm.
Take `CCCCCCCCCCOC(=O)CCCCCCCOc1cc(CN(C)C)cc(OCCCCCCCC(=O)OCCCCCCCCCC)c1` [Example 57]: the PDI is on record as 0.03 in series [1] (setting [5]), 0.059 in series [1] (setting [6]) and 0.038 in series [1] (setting [8]). Moreover, the pKa in series [2] (Table 4) and in series [2] (Table 5) was 5.94 each time. Moreover, the “LS411 KD 3 × 3 mg/Kg” value in the series with PLK-1 mRNA (stealth lipid S010) came out at 60%.
For the compound `CCCCC/C=C\C/C=C\CCCCCCCC(=O)OCCCCOc1cc(CN(C)C)cc(OCCCCOC(=O)CCCCCCC/C=C\CCCCCCCC)c1` [Example 63], the PDI in series [1] (setting [6]) is given as 0.057; in series [1] (setting [7]), 0.047. The pKa in series [2] (Table 4) was determined as 5.92; in series [2] (Table 5), 5.9. The “LS411 KD 3 × 3 mg/Kg” value in the series with PLK-1 mRNA (stealth lipid PEG-DSG) worked out at 66%.
`CCCCC/C=C\C/C=C\CCCCCCCC(=O)OCc1cc(COC(=O)CCCCCCC/C=C\C/C=C\CCCCC)cc(COC(=O)OCCCN(CC)CC)c1` [Example 69]: in series [1] (setting [6]), the PDI was found to be 0.053. In series [2] (Table 4), this compound gave a pKa of 5.3. Further, in series [4] (2 weeks after first dose), the “anti-RSV-F titer 2wp1 pool 1” value stood at 2853 and the “anti-RSV-F titer 2wp1 pool 2” value was 4481. Further, in series [4] (2 weeks after second dose), the “anti-RSV-F titer 2wp2 pool 1” value came to 23851 and the “anti-RSV-F titer 2wp2 pool 2” value was 20793. Besides, in series [4] (4 weeks after second dose), the “anti-RSV-F titer 4wp2 pool 1” value came to 19075 and the “anti-RSV-F titer 4wp2 pool 2” value is reported as 21504. The “Size (nm)” value in series [3] (setting [10]) is 98.13 nm.
As to `CCCCCCCC(=O)OCC(CCOc1cc(CN(C)C)cc(OCCC(COC(=O)CCCCCCC)OC(=O)CCCCCCC)c1)OC(=O)CCCCCCC` (stereo not shown) [Example 91], the PDI in series [1] (setting [5]) is 0.06; in series [1] (setting [6]), 0.053; in series [1] (setting [8]), 0.032. The pKa in series [2] (Table 4) and in series [2] (Table 5) was 6.01 throughout. In addition, the “LS411 KD 3 × 3 mg/Kg” value in the series on PLK-1 mRNA (stealth lipid S010) stood at 45%.
